Experimental data from US20120172386A1, “Combinations Comprising a VEGF Receptor Inhibitor” (NOVARTIS AG, priority 2005, published 2012).

Assays:
[1] = target: VEGF-R2 (KDR) (Homo sapiens, UniProt P35968); assay: Inhibition of the tyrosine kinase activity of VEGF-R2 (KDR); format: biochemical
Protocol: Inhibition of the Tyrosine Kinase Activity of VEGF-R2 (KDR)
The inhibition test is carried out as described above.

[2] = Percutaneous penetration/permeation in static Franz-type diffusion cells with split-thickness human cadaver skin; format: in vitro ADME; conditions: solution a (propylene glycol); batch of skin 4
Protocol: Frozen human dorsal cadaver skin (Caucasian; back skin) was obtained from the National Disease Research Interchange, Philadelphia, USA. Skin from three different donors was used;
Thawed skin samples were dermatomed to 0.7 mm with an Aesculap dermatome to obtain “split-thickness” skin.
Percutaneous penetration was studied in vitro by means of static Franz-type diffusion cells with phosphate buffered saline/fetal calf serum 2:1 as receptor fluid at 32° in triplicates for 48 hours. The compounds were applied as 1% solutions (300 μl each) in propylene glycol (solution a) or in propylene glycol/oleyl alcohol 9:1 (solution b). Samples of 100 μl were taken 5 to 7 times and replaced by fresh receptor fluid as described previously (Schmook, et al., Skin Pharmacol. 1993, 6:116-124).
Drug analysis was performed with specimens of the exposed skin (at the end of the 48 hours experiment), from which the stratum corneum had been removed by 20 strippings with an adhesive tape. The weighed skin samples were homogenized in 0.2 M ammonium phosphate buffer (pH 7.0). The homogenates were extracted with ethyl acetate and processed as described (Schmook, et al 1993).

[3] = as above; format: in vitro ADME; conditions: batch of skin 4
[4] = solution c (propylene glycol containing 0.1% DMSO)
[5] = solution d (propylene glycol containing 1% DMSO)

Chain of VEGF-R2 (KDR) (P35968 20-1356, species assumed): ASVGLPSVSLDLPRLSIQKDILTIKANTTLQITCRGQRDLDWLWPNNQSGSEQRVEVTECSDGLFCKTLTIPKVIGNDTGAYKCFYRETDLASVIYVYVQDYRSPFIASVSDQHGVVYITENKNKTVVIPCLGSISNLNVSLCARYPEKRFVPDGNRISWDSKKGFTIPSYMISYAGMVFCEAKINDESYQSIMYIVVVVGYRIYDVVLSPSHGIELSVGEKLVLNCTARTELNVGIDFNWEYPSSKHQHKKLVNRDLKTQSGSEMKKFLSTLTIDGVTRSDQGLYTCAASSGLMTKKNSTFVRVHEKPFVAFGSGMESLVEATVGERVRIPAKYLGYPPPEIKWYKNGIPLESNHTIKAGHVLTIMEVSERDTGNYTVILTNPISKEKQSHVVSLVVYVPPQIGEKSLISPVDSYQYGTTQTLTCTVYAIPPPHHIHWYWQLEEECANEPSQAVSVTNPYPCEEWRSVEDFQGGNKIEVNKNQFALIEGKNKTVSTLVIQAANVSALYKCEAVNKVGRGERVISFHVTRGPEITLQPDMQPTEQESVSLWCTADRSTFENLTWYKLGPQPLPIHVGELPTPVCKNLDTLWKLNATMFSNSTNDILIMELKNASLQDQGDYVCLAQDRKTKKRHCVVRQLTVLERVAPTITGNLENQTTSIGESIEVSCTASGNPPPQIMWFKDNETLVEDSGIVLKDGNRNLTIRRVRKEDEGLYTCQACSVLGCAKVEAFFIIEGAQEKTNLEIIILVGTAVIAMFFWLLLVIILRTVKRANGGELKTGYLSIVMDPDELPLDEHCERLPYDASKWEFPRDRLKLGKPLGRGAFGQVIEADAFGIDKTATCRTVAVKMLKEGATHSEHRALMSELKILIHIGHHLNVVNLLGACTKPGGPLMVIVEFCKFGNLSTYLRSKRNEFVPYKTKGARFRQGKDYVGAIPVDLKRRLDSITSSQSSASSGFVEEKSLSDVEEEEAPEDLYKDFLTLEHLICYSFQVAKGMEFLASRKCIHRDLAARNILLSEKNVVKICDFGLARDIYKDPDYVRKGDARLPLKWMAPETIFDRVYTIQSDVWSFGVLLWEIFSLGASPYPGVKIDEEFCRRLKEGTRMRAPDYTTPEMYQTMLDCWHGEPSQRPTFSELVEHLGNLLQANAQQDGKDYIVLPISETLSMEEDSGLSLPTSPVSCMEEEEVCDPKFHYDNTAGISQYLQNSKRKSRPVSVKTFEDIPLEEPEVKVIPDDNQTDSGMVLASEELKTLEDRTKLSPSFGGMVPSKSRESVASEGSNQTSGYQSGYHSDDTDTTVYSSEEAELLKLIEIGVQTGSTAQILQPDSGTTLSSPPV

Row | SMILES | IC50 [1] [nM] | melting point [°C] | further results
1 | Cc1ccc(NC(=O)N2CCOc3cc(Oc4ccnc(N)n4)ccc32)cc1C(F)(F)F [12f), 7-(2-amino-pyrimidin-4-yloxy)-2,3-dihydro-benzo[1,4]oxazine-4-carboxylic acid (4-methyl-3-trifluoromethyl-phenyl)-amide] | 17 | – | –
2 | Nc1nccc(Oc2ccc3c(C(=O)Nc4ccc(C(F)(F)F)cc4)cccc3c2)n1 [17a)] | 19 | – | –
3 | CC(C)(C)c1ccc(NC(=O)c2cccc3cc(Oc4ccnc(N)n4)ccc23)cc1 [17b)] | 54 | – | –
4 | CNc1cc(Oc2ccc3c(c2)OCCN3C(=O)Nc2ccc(C)c(C(F)(F)F)c2)ncn1 [Example 8, 7-(6-Methylamino-pyrimidin-4-yloxy)-2,3-dihydro-benzo[1,4]oxazine-4-carboxylic acid (4-methyl-3-trifluoromethyl-phenyl)-amide] | 46 | 180 to 182 | –
5 | CNc1cc(Oc2ccc3c(c2)OCCN3C(=O)Nc2cccc(C(F)(F)F)c2)ncn1 [Example 9, 7-(6-Methylamino-pyrimidin-4-yloxy)-2,3-dihydro-benzo[1,4]oxazine-4-carboxylic acid (3-trifluoromethyl-phenyl)-amide] | 29 | 180 | –
6 | Nc1nccc(Oc2ccc3c(c2)OCCN3C(=O)Nc2cccc(C(F)(F)F)c2)n1 [Example 10, 7-(2-Amino-pyrimidin-4-yloxy)-2,3-dihydro-benzo[1,4]oxazine-4-carboxylic acid (3-trifluoromethyl-phenyl)-amide] | 37 | 161 to 163 | –
7 | Cc1ccc(NC(=O)c2cccc3cc(Oc4ccnc(N)n4)ccc23)cc1C(F)(F)F [Example 15, 6-(2-Amino-pyrimidin-4-yloxy)-naphthalene-1-carboxylic acid (4-methyl-3-trifluoromethyl-phenyl)-amide] | 20 | – | –
8 | CC(=O)Nc1nccc(Oc2ccc3c(C(=O)Nc4cccc(C(F)(F)F)c4)cccc3c2)n1 [Example 18, 6-(2-Acetylamino-pyrimidin-4-yloxy)-naphthalene-1-carboxylic acid (3-trifluoromethyl-phenyl)-amide] | 21 | 216 to 217 | –
9 | CC(=O)Nc1nccc(Oc2ccc3c(c2)OCCN3C(=O)Nc2ccc(C)c(C(F)(F)F)c2)n1 [Example 20, 7-(2-Acetylamino-pyrimidin-4-yloxy)-2,3-dihydro-benzo[1,4]oxazine-4-carboxylic acid (4-methyl-3-trifluoromethyl-phenyl)-amide] | 24 | – | –
10 | COC(=O)Nc1nccc(Oc2ccc3c(c2)OCCN3C(=O)Nc2ccc(C)c(C(F)(F)F)c2)n1 [Example 21, 7-(2-Methoxycarbonylamino-pyrimidin-4-yloxy)-2,3-dihydro-benzo[1,4]oxazine-4-carboxylic acid (4-methyl-3-trifluoromethyl-phenyl)-amide] | 19 | – | –
11 | CN1CCN(Cc2ccc(NC(=O)N3CCOc4cc(Oc5ccnc(N)n5)ccc43)cc2C(F)(F)F)CC1 [Example 22, 7-(2-Amino-pyrimidin-4-yloxy)-2,3-dihydro-benzo[1,4]oxazine-4-carboxylic acid [4-(4-methyl-piperazin-1-ylmethyl)-3-trifluoromethyl-phenyl]-amide] | 96 | – | –
12 | Nc1nccc(Oc2ccc3c(C(=O)Nc4cccc(C(F)(F)F)c4)cccc3c2)n1 [formula Ip] | – | – | Permeation rate [2]: <2 ng/mL/h; Skin concentration [2]: 6.2 ± 1.5 µg/g; Permeation rate [3, 4]: <2 ng/mL/h; Skin concentration [3, 4]: 4.4 ± 3.1 µg/g; Permeation rate [3, 5]: <2 ng/mL/h; Skin concentration [3, 5]: 4.7 ± 2.9 µg/g
